biological target: T1, PLK1 (Homo sapiens, UniProt P53350); assay: PLK1 protein degradation by western blotting in HeLa cells; assay type: cell-based; details: thymidine block and release, compound 100 nM, 6 hours, PLK1/GAPDH ratio, read-out: PLK1 protein degradability (Dmax)
T1 construct: endogenous in cells; host or cells: HeLa
Experimental: The HeLa cell line was purchased from Korea Cell Line Bank (KCLB), Seoul, Korea. The passage in cell culture was maintained at P115 to P125.
2×10^5 cells were seeded for each well of a 12-well plate (SPL), and the cells were cultured in the culture medium in a total volume of 2 ml.
The compounds of Examples were completely dissolved in DMSO and used in the experiment, and thymidine was completely dissolved in DW and used in the experiment. For thymidine block, the products were treated with 2 mM of thymidine (Sigma-Aldrich Cat. No. T9250-5G) and then incubated for 24 hours.
For release and chemical treatment, the medium was suctioned and washed 3 times with 1×PBS. Complete media was added, followed by incubation for 4 hours in a CO2 incubator. Each compound was treated according to the concentration of 100 nM and then incubated for 6 hours again.
For SDS-PAGE and Western blotting, 1×RIPA lysis buffer (Rockland, Cat. No. MB-030-0050; Lot no. 39751), 100× Protease Inhibitor Cocktail (Quartett, Cat. No. PPI1015; Lot no. PC050038424), Pierce ? BCA protein assay kit (ThermoScientific, Cat. No. 23225; Lot no. UC276876), albumin standard (ThermoScientific, Cat. No. 23209; Lot no. UB269561), 4-15% Mini-PROTEAN TGX stain-free gel (Bio-rad, Cat. No. 4568085; Lot no. L007041B), 10× Tris/Glycine/SDS buffer (Bio-rad, Cat. No. 1610732; Lot no. 10000044375B); 10×TBS (Bio-rad, Cat. No. 1706435; Lot no. 1000045140B), 10% Tween 20 (Cat. No. 1610781; Lot no. L004152B), Color protein standard broad range (NEB, Cat. No. P7719S; Lot no. 10040349), 4× Laemmli sample buffer (Bio-rad, Cat. No. 1610747; Lot no. L004133B), β-mercaptoethanol (Sigma-Aldrich, Cat. No. M3148; Lot no. 60-24-2), SuperBlock ? T20 (TBS) blocking buffer (ThermoScientific, Cat. No. 37536; Lot no. UC282578), 1M sodium azide solution (Sigma-Aldrich, Cat. No. 08591-1 mL-F; Lot no. BCBV4989), α-Rabbit pAb to Ms IgG (abcam, Cat. No. ab97046; Lot no. GR3252115-1), α-Goat pAb to Rb IgG (CST, Cat. No. 7074S; Lot no. 28), α-GAPDH (abeam, Cat. No. ab8245; Lot no. GR3275542-2), α-Plk1 (CST, Cat. No. 208G4), α-BRD4 (CST, Cat. No. 13440S), ECL ? Prime western blotting reagents (GE Healthcare, Cat. No. RPN2232; Lot no. 17001655), Ponceau S solution (Sigma-Aldrich, Cat. No. P7170; Lot no. SLBV4112), Difco ? […]
Then, a standard curve was obtained using the BCA assay, and the protein mass in the lysate was quantified by substituting the curve equation. The mixture was incubated at 37° C. for 30 minutes using 20 μL of standard or sample solution, and 200 μL of BCA or Bradford solution, and measured at 562 nm absorbance. Samples were prepared by adding 4× sample buffer so that the quantity of protein added to each well was 15 μg. […]

T1 sequence (P53350 whole entry): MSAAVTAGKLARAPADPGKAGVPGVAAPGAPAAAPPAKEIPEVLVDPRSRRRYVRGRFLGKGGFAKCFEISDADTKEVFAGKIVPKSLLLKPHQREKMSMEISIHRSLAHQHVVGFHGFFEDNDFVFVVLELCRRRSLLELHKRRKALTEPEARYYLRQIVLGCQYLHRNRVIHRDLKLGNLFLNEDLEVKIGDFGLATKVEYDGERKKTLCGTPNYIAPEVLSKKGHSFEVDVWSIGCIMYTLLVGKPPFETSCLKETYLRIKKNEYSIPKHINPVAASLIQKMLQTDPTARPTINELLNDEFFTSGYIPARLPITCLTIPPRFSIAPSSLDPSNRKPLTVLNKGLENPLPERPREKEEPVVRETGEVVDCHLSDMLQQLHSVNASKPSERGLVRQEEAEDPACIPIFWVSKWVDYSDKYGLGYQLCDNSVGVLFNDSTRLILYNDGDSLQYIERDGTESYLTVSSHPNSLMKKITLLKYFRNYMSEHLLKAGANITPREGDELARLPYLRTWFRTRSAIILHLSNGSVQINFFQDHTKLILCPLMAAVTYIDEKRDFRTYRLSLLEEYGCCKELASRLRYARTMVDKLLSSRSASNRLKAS

Dmax at 0.1 µM, ≥ 60%:
COc1c(Nc2ncc3c(n2)-c2c(c(C(N)=O)nn2C)CC3)cc(N2CCN(C)CC2)cc1C(=O)NCCOCCOCCNc1cccc2c1C(=O)N(C1CCC(=O)NC1=O)C2=O (stereo not shown) [Compound 2, 8-((3-((2-(2-(2-((2-(2,6-dioxopiperidin-3-yl)-1,3-dioxoisoindolin-4-yl)amino)ethoxy)ethoxy)ethyl)carbamoyl)-2-methoxy-5-(4-methylpiperazin-1-yl)phenyl)amino)-1-methyl-4,5-dihydro-1H-pyrazolo[4,3-h]quinazoline-3-carboxamide]
COc1c(Nc2ncc3c(n2)-c2c(c(C(N)=O)nn2C)CC3)cc(N2CCN(C)CC2)cc1C(=O)NCCOCCOCCOCCNc1cccc2c1C(=O)N(C1CCC(=O)NC1=O)C2=O (stereo not shown) [Compound 3, 8-((3-((2-(2-(2-(2-((2-(2,6-dioxopiperidin-3-yl)-1,3-dioxoisoindolin-4-yl)amino)ethoxy)ethoxy)ethoxy)ethyl)carbamoyl)-2-methoxy-5-(4-methylpiperazin-1-yl)phenyl)amino)-1-methyl-4,5-dihydro-1H-pyrazolo[4,3-h]quinazoline-3-carboxamide]
Cn1nc(C(N)=O)c2c1-c1nc(Nc3cc(N4CCN(CCOCCOCCOCCOCCNc5cccc6c5C(=O)N(C5CCC(=O)NC5=O)C6=O)CC4)ccc3OC(F)(F)F)ncc1CC2 (stereo not shown) [Compound 7, 8-((5-(4-(14-((2-(2,6-dioxopiperidin-3-yl)-1,3-dioxoisoindolin-4-yl)amino)-3,6,9,12-tetraoxatetradecyl)piperazin-1-yl)-2-(trifluoromethoxy)phenyl)amino)-1-methyl-4,5-dihydro-1H-pyrazolo[4,3-h]quinazoline-3-carboxamide]
COc1c(Nc2ncc3c(n2)-c2c(c(C(N)=O)nn2C)CC3)cc(N2CCN(C)CC2)cc1C(=O)NCCOCCOCC(=O)N[C@H](C(=O)N1C[C@H](O)C[C@H]1C(=O)NCc1ccc(-c2scnc2C)cc1)C(C)(C)C [Compound 9, 8-((3-((2-(2-(2-(((S)-1-((2S,4R)-4-hydroxy-2-((4-(4-methylthiazol-5-yl)benzyl)carbamoyl)pyrrolidin-1-yl)-3,3-dimethyl-1-oxobutan-2-yl)amino)-2-oxoethoxy)ethoxy)ethyl)carbamoyl)-2-methoxy-5-(4-methylpiperazin-1-yl)phenyl)amino)-1-methyl-4,5-dihydro-1H-pyrazolo[4,3-h]quinazoline-3-carboxamide]
